Source: patent publication US20080161366A1, “AMINOALKYL SUBSTITUTED ARYL SULFAMIDE DERIVATIVES AND METHODS OF THEIR USE” (Wyeth, priority 2006, published 2008)
Structures can show the parent of a compound that is named as a salt.

biological target: human norepinephrine transporter (hNET) (Homo sapiens, UniProt P23975); assay: hNET uptake, Protocol B: cell based norepinephrine reuptake assay using recombinant hNET (MDCK-Net6 cells); details: MDCK-Net6, read-out: NE uptake (Protocol B) % inhibition @ 6 uM
Sequence (P23975 whole entry): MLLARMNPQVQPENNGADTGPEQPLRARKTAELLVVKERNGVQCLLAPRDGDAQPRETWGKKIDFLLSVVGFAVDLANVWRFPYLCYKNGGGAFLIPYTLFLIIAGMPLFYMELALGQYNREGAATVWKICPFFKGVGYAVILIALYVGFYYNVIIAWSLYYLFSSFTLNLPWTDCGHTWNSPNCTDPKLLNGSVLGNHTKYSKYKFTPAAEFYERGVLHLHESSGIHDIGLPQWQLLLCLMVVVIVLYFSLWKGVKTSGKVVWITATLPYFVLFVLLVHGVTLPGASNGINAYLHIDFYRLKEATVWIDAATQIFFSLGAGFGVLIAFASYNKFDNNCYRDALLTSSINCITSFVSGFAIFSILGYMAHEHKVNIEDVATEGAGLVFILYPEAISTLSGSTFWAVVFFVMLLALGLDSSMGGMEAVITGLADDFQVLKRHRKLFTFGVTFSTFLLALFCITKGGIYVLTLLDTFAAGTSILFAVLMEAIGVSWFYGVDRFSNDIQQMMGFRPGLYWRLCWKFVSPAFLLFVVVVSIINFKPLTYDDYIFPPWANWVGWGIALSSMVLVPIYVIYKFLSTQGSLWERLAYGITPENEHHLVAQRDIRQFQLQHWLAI

In order of rising inhibition at 6 µM:
1. O=S1(=O)N(CCCNCC(F)(F)F)c2ccccc2N1c1ccc(F)c(F)c1 [Example 111, 3-[3-(3,4-difluorophenyl)-2,2-dioxido-2,1,3-benzothiadiazol-1(3H)-yl]-N-(2,2,2-trifluoroethyl)propan-1-amine]  0%
2. CN(C)CCCCN1c2ccccc2N(c2ccc(F)cc2Cl)S1(=O)=O [Example 88, 4-[3-(2-chloro-4-fluorophenyl)-2,2-dioxido-2,1,3-benzothiadiazol-1(3H)-yl]-N,N-dimethylbutan-1-amine hydrochloride]  57%

same assay, conditions: NE uptake (Protocol B) IC50 (nM), MDCK-Net6 cells, 3H-NE 16 nM

In order of falling IC50:
1. NCCCCN1c2ccccc2N(c2ccccc2F)S1(=O)=O [Example 58, 4-[3-(2-fluorophenyl)-2,2-dioxido-2,1,3-benzothiadiazol-1(3H)-yl]butan-1-amine]  3270 nM
2. CNCCCN1c2ccccc2N(c2ccc(OC)nc2)S1(=O)=O [Example 28, 3-[3-(6-methoxypyridin-3-yl)-2,2-dioxido-2,1,3-benzothiadiazol-1(3H)-yl]-N-methylpropan-1-amine hydrochloride]  1900 nM
3. O=S1(=O)N(CCCCNC2CCCCC2)c2ccccc2N1c1c(F)cccc1F [Example 125, N-{4-[3-(2,6-difluorophenyl)-2,2-dioxido-2,1,3-benzothiadiazol-1(3-yl]butyl}cyclohexanamine hydrochloride]  440 nM
4. CNCCCN1c2ccccc2N(c2ccc(OC)cc2F)S1(=O)=O [Example 91, 3-[3-(2-fluoro-4-methoxyphenyl)-2,2-dioxido-2,1,3-benzothiadiazol-1(3H)-yl]-N-methylpropan-1-amine hydrochloride]  325 nM
5. CNCCCN1c2ccccc2N(c2ccc(F)cc2OC)S1(=O)=O [Example 64, 3-[3-(4-fluoro-2-methoxyphenyl)-2,2-dioxido-2,1,3-benzothiadiazol-1(3H)-yl]-N-methylpropan-1-amine]  295 nM
6. CNCCCN1c2ccccc2N(c2cnccc2C)S1(=O)=O [Example 33, N-methyl-3-[3-(4-methylpyridin-3-yl)-2,2-dioxido-2,1,3-benzothiadiazol-1(3H)-yl]propan-1-amine hydrochloride]  282 nM
7. NCCCN1c2ccccc2N(c2c(F)cc(F)cc2F)S1(=O)=O [Example 70, 3-[2,2-Dioxido-3-(2,4,6-trifluorophenyl)-2,1,3-benzothiadiazol-1(3H)-yl]propan-1-amine hydrochloride]  277 nM
8. O=S1(=O)N(CCCNC2CCNCC2)c2ccccc2N1c1ccccc1 [Example 132, N-[3-(2,2-dioxido-3-phenyl-2,1,3-benzothiadiazol-1(3H)-yl)propyl]piperidin-4-amine dihydrochloride]  267 nM
9. NCCCN1c2ccccc2N(c2ccc(F)cc2F)S1(=O)=O [Example 72, 3-[3-(2,4-difluorophenyl)-2,2-dioxido-2,1,3-benzothiadiazol-1(3H)-yl]propan-1-amine hydrochloride]  259 nM
10. O=S1(=O)N(CCCNC2CCCCC2)c2ccccc2N1c1c(F)cccc1F [Example 130, N-{3-[3-(2,6-difluorophenyl)-2,2-dioxido-2,1,3-benzothiadiazol-1(3H)-yl]propyl}cyclohexanamine hydrochloride]  224 nM
11. CNCCCN1c2ccccc2N(c2ccccc2OC(F)(F)F)S1(=O)=O [Example 50, 3-{2,2-dioxido-3-[2-(trifluoromethoxy)phenyl]-2,1,3-benzothiadiazol-1(3H)-yl}-N-methylpropan-1-amine hydrochloride]  190 nM
12. CN(C)CCCN1c2ccccc2N(c2ccc(F)cc2F)S1(=O)=O [Example 118, 3-[3-(2,4-difluorophenyl)-2,2-dioxido-2,1,3-benzothiadiazol-1(3H)-yl]-N,N-dimethylpropan-1-amine hydrochloride]  153 nM
13. Cc1ccc(N2c3ccccc3N(CCCCN)S2(=O)=O)c(F)c1 [Example 105, 4-[3-(2-fluoro-4-methylphenyl)-2,2-dioxido-2,1,3-benzothiadiazol-1(3H)-yl]butan-1-amine]  125 nM
14. CNCCCN1c2ccccc2N(c2cccc(C)c2)S1(=O)=O [Example 15, N-methyl-3-[3-(3-methylphenyl)-2,2-dioxido-2,1,3-benzothiadiazol-1(3H)-yl]propan-1-amine]  96.2 nM
15. CNCCCN1c2c(F)cccc2N(c2cccc(F)c2)S1(=O)=O [Example 42, 3-[7-fluoro-3-(3-fluorophenyl)-2,2-dioxido-2,1,3-benzothiadiazol-1(3H)-yl]-N-methylpropan-1-amine]  86.3 nM
16. CCNCCCN1c2ccccc2N(c2ccc(F)cc2F)S1(=O)=O [Example 119, 3-[3-(2,4-difluorophenyl)-2,2-dioxido-2,1,3-benzothiadiazol-1(3H)-yl]-N-ethylpropan-1-amine hydrochloride]  77 nM
17. O=S1(=O)N(CCCNCCO)c2ccccc2N1c1ccccc1F [Example 135, 2-({3-[3-(2-fluorophenyl)-2,2-dioxido-2,1,3-benzothiadiazol-1(3H)-yl]propyl}amino)ethanol]  43 nM
18. CNCCCN1c2ccccc2N(c2ccc(C)cc2)S1(=O)=O [Example 8, N-methyl-3-[3-(4-methylphenyl)-2,2-dioxido-2,1,3-benzothiadiazol-1(3H)-yl]propan-1-amine]  35.7 nM
19. CNCCCN1c2ccccc2N(c2ccc(Cl)cc2F)S1(=O)=O [Example 95, 3-[3-(4-chloro-2-fluorophenyl)-2,2-dioxido-2,1,3-benzothiadiazol-1(3H)-yl]-N-methylpropan-1-amine]  30 nM
20. CNCCCCN1c2ccccc2N(c2ccc(C)cc2F)S1(=O)=O [Example 104, 4-[3-(2-fluoro-4-methylphenyl)-2,2-dioxido-2,1,3-benzothiadiazol-1(3H)-yl]-N-methylbutan-1-amine]  26 nM
21. CNCCCN1c2ccccc2N(c2cccc(Br)c2)S1(=O)=O [Example 53, 3-[3-(3-bromophenyl)-2,2-dioxido-2,1,3-benzothiadiazol-1(3H)-yl]-N-methylpropan-1-amine hydrochloride]  24.5 nM
22. O=S1(=O)N(CCCNC2CC2)c2ccccc2N1c1c(F)cccc1F [Example 84, N-{3-[3-(2,6-Difluorophenyl)-2,2-dioxido-2,1,3-benzothiadiazol-1(3H)-yl]propyl}cyclopropanamine hydrochloride]  21 nM
23. O=S1(=O)N(CCCCNC2CC2)c2ccccc2N1c1c(F)cccc1F [Example 86, N-{4-[3-(2,6-Difluorophenyl)-2,2-dioxido-2,1,3-benzothiadiazol-1(3H)-yl]butyl}cyclopropanamine hydrochloride]  21 nM
24. O=S1(=O)N(CCCNC2CC2)c2ccccc2N1c1ccccc1F [Example 97, N-{3-[3-(2-fluorophenyl)-2,2-dioxido-2,1,3-benzothiadiazol-1(3H)-yl]propyl}cyclopropanamine]  21 nM
25. CNCCCN1c2ccccc2N(c2c(F)cc(F)cc2F)S1(=O)=O [Example 77, 3-[2,2-Dioxido-3-(2,4,6-trifluorophenyl)-2,1,3-benzothiadiazol-1(3H)-yl]-N-methylpropan-1-amine hydrochloride]  15 nM
26. CNCCCCCN1c2ccccc2N(c2ccccc2F)S1(=O)=O [Example 66, 5-[3-(2-fluorophenyl)-2,2-dioxido-2,1,3-benzothiadiazol-1(3H)-yl]-N-methylpentan-1-amine]  14.2 nM
27. CNCCCN1c2ccccc2N(c2ccccc2OC)S1(=O)=O [Example 9, 3-[3-(2-methoxyphenyl)-2,2-dioxido-2,1,3-benzothiadiazol-1(3H)-yl]-N-methylpropan-1-amine]  12.6 nM
28. CNCCCN1c2ccccc2N(c2ccc(F)cc2F)S1(=O)=O [Example 114, 3-[3-(2,4-difluorophenyl)-2,2-dioxido-2,1,3-benzothiadiazol-1(3H)-yl]-N-methylpropan-1-amine hydrochloride]  11 nM
29. CNCCCN1c2ccccc2N(c2cccc(OC)c2)S1(=O)=O [Example 17, 3-[3-(3-methoxyphenyl)-2,2-dioxido-2,1,3-benzothiadiazol-1(3H)-yl]-N-methylpropan-1-amine]  10.8 nM
30. NCCCN1c2ccccc2N(c2c(F)cccc2F)S1(=O)=O [Example 69, 3-[3-(2,6-Difluorophenyl)-2,2-dioxido-2,1,3-benzothiadiazol-1(3H)-yl]propan-1-amine hydrochloride]  10.4 nM
31. CNCCCN1c2ccccc2N(c2ccccc2C)S1(=O)=O [Example 16, N-methyl-3-[3-(2-methylphenyl)-2,2-dioxido-2,1,3-benzothiadiazol-1(3H)-yl]propan-1-amine]  7.06 nM
32. CNCCCN1c2ccc(F)cc2N(c2ccccc2)S1(=O)=O [Example 44, 3-(5-fluoro-2,2-dioxido-3-phenyl-2,1,3-benzothiadiazol-1(3H)-yl)-N-methylpropan-1-amine]  4.26 nM
33. CNCCCN1c2ccccc2N(c2ccc(O)cc2F)S1(=O)=O [Example 92, 3-fluoro-4-{3-[3-(methylamino)propyl]-2,2-dioxido-2,1,3-benzothiadiazol-1(3H)-yl}phenol hydrochloride]  3 nM
34. CNCCCN1c2cccc(F)c2N(c2ccccc2F)S1(=O)=O [Example 73, 3-[4-fluoro-3-(2-fluorophenyl)-2,2-dioxido-2,1,3-benzothiadiazol-1(3H)-yl]-N-methylpropan-1-amine hydrochloride]  2.81 nM
35. CNCCCN1c2ccccc2N(c2cc(F)ccc2F)S1(=O)=O [Example 48, 3-[3-(2,5-difluorophenyl)-2,2-dioxido-2,1,3-benzothiadiazol-1(3H)-yl]-N-methylpropan-1-amine hydrochloride]  2.78 nM
36. CNCCCN1c2ccccc2N(c2cc(F)cc(F)c2)S1(=O)=O [Example 47, 3-[3-(3,5-difluorophenyl)-2,2-dioxido-2,1,3-benzothiadiazol-1(3H)-yl]-N-methylpropan-1-amine hydrochloride]  2.73 nM

same assay, conditions: read-out: NE uptake (Protocol B) IC50; MDCK-Net6 cells, 3H-NE 16 nM

Work on “N-{3-[3-(2-fluorophenyl)-2,2-dioxido-2,1,3-benzothiadiazol-1(3H)-yl]butyl}cyclopropanamine [Example 99]” yielded an IC50 of 22 nM.
